In patent publication EP0748793A1, “KETOPANTHENOL WITH ACETYLATING PROPERTIES” (TOVARISCHESTVO S OGRANICHENNOI OTVETSTVENNOSTJU " PANT", priority 1994, dated 1995):
Entries after “also recorded” stand apart in the source; their conditions may differ.

Assays:
[1] = system: acetylation of aromatic amines (N-acetylation); assay: Acetylating properties of the organism: acetylation of sodium sulfacyl, arylamines determined in urine; format: in vivo, white rats; conditions: for % of excretion from the dose, In acetylated form / % of excretion from the dose, In free form / Acetylating properties of the organism: Na sulfacyl acetylating in the organism of rats; for Concentration in urine, In acetylated form / Concentration in urine, In free form: Na sulfacyl in rat urine; for Na sulfacyl excretion, Sulfacyl isolation M ± m, In acetylated form / Na sulfacyl excretion, Sulfacyl isolation M ± m, In free form / Na sulfacyl excretion, Sulfacyl isolation M ± m, Total / Na sulfacyl excretion, Excretion % from the dose: rats; for Na sulfacyl excretion, Sulfacyl isolation M ± m, In acetylated form / Na sulfacyl excretion, Sulfacyl isolation M ± m, In free form / Na sulfacyl excretion, Sulfacyl isolation M ± m, Total: agent i.p. for 4 days, then Na sulfacyl 20 mg/kg i.p., urine; for Na sulfacyl excretion, Excretion % from the dose: total sulfacyl in urine relative to the sulfacyl dose
Method: The level of the organism supply with a vitamin is determined by the study of the reaction of acetylation of exogenous aromatic amines. The total acetylating properties of the organism were assessed by the method of quantitative determination of the content of arylamines in the examined substrate (urine).
Sodium sulfacyl was chosen as the substance for acetylation.
The influence of 4-days of injections of ketopanthenol on the acetylating properties of white rats was examined during the experiments.
The experiments were carried out using mongrel pubescent male rats. 14 animals were included in each group. The examined agent was injected intraperitoneally in a dose of 29 mg/kg. On the 4th day 4 hours after the last injection of the examined agent the sodium sulfacyl solution in a dose of 20 mg/kg was injected intraperitoneally. All the rats were separated into exchangeable cages for urine gathering. The resulting data were compared with the control groups (group I - only received sodium sulfacyl in a dose of 20 mg/kg, and group II received calcium D-pantothenate).
The average weight of the animals in the group fluctuated within 154.7 ± 10.8 g, the absolute dose of sodium sulfacyl was 3.09 ± 0.14 mg.

non-linear white rats = assay: Subchronic toxicity and local irritating effect, 2 months daily dosing, mass growth; format: in vivo
Method: The study of subchronic toxicity and the local irritating effect of ketopanthenol.
In the experiment carried out for 2 months, non-linear white rats of both sexes with the average initial weight of 75 ± 3.3 g were used. The animals were divided into 7 groups. The first three groups received daily, during the whole experimental period, ketopanthenol in 0.2 ml of distilled water in doses of 13.2 mg/kg (which corresponds to the therapeutic dose of vitamin B3), 132.0 and 264 mg/kg (in doses 10 and 20 times larger than the therapeutic dose). […] The animals of the seventh group were used as control, receiving internally 0.2 ml of distilled water daily.
During the whole experiment the animals were weighed once a week and the observation on their development, state and behavior was carried out.

in vivo = conditions: mouse, po
Method: (§1) To determine acute toxicity of ketopanthenol, non-linear white mice of both sexes with the average mass of 19 ± 3 g were used. There were 72 mice in the experiment, the animals were divided into 12 groups, 6 animals in each group. The mice of the first 6 groups received ketopanthenol in 0.2 ml of distilled water once internally in doses: 20.0, 21.0, 22.0, 23.0, 24.0 and 25.0 g/kg.
(§2) The 12 group was the control one, the mice of this group received once internally only 0.2 ml of distilled water.
(§3) The mice were under observation for 14 days.
(§4) The LD50 calculations were carried out according to Kerber

Solubility in solvents = format: physicochemical
[2] = system: conjunctive bag of the eye; assay: Eye irritation, aqueous solution dripped into the conjunctive bag; format: in vivo; conditions: eye of 5 rabbits, three days
Source text: The aqueous solution of ketopanthenol was dripped into the conjunctive bag of the eye of 5 rabbits weighing 2.5 ± 0.3 kg for three days.

non-linear white mice = assay: in vivo; conditions: mouse
Method: as §1, §2, §3, §4

[3] = dose 10 times larger than the therapeutic dose (132.0 mg/kg), 2 months
[4] = dose 20 times larger than the therapeutic dose (264 mg/kg), 2 months
[5] = rats, 13.2 mg/kg daily, 2 months
[6] = rats, 132.0 mg/kg daily, 2 months
[7] = rats, 264.0 mg/kg daily, 2 months
[8] = therapeutic dose (13.2 mg/kg), 2 months

SMILES | % of excretion from the dose, In acetylated form [1] | % of excretion from the dose, In free form [1] | Acetylating properties of the organism [1] | Concentration in urine, In acetylated form [1] | Concentration in urine, In free form [1] | Na sulfacyl excretion, Sulfacyl isolation M ± m, In acetylated form [1] | Na sulfacyl excretion, Sulfacyl isolation M ± m, In free form [1] | Na sulfacyl excretion, Sulfacyl isolation M ± m, Total [1] | Na sulfacyl excretion, Excretion % from the dose [1] | growth of the mass of the rats, higher in comparison with the control animals (non-linear white rats; [3]) | growth of the mass of the rats, higher in comparison with the control animals (non-linear white rats; [4]) | Mass growth during the experiment (non-linear white rats; [5]) | Mass growth during the experiment, % to the control (non-linear white rats; [5]) | Mass, Final (non-linear white rats; [5]) | Mass growth during the experiment (non-linear white rats; [6]) | Mass growth during the experiment, % to the control (non-linear white rats; [6]) | Mass, Final (non-linear white rats; [6]) | Mass growth during the experiment (non-linear white rats; [7]) | Mass growth during the experiment, % to the control (non-linear white rats; [7]) | Mass, Final (non-linear white rats; [7]) | further results
CC(C)(CO)[C@@H](O)C(=O)NCCC(=O)O [D (+) pantothenate Ca, calcium D-pantothenate, reference compound] | 22.3 ± 1.8% | 70.7 ± 6.0% | 24.0 | 0.172 mg/mL | 0.54 mg/mL | 0.67 ± 0.04 | 2.12 ± 0.09 | 2.79 ± 0.19 | 93.0% | – | – | – | – | – | – | – | – | – | – | – | –
CC(C)(CO)[C@@H](O)C(=O)NCCCO [D-panthenol, D-pantothenyl alcohol, reference compound] | – | – | – | – | – | – | – | – | – | 9.3% | 5.2% | 129.5 ± 8.5 g | 108.0% | 202.0 ± 16.4 | 131.1 ± 8.5 g | 109.3% | 205.1 ± 16.0 | 126.1 ± 9.3 g | 105.2% | 197.3 ± 18.8 | growth of the mass of the rats, higher in comparison with the control animals (non-linear white rats; [8]): 8.0%; MTD at 336 h (in vivo): 21000 mg/kg
CC(C)(CO)C(=O)C(=O)NCCCO [ketopanthenol] | 32.0 ± 2.3% | 62.1 ± 2.9% | 34.0 | 0.36 mg/mL | 0.71 mg/mL | 0.99 ± 0.4 | 1.92 ± 0.09 | 2.91 ± 0.21 | 94.2% | 12.0% | 6.5% | 132.7 ± 10.7 g | 103.72% | 210.7 ± 18.1 | 134.3 ± 8.4 g | 112.0% | 209.5 ± 22.5 | 127.7 ± 11.0 g | 106.5% | 200.1 ± 12.3 | excretion of the sulfacyl in its free form, lower ([1]; compared with the series I (control)): 20%; increase of the acetylating properties of the organism ([1]; in comparison with calcium D-pantothenate): 1.5 times; increase of the excretion of the acetylated product ([1]; in comparison with group II (calcium D-pantothenate)): 1.7 times; increase of the acetylating properties of the organism ([1]; in comparison with the control): 3.6 times; increase of the excretion of the acetylated product ([1]; in comparison with the control group): 4 times; solubility (Solubility in solvents; in ether): poor solubility; solubility (Solubility in solvents; in water, alcohols, acetone, chloroform): good solubility; irritating effect [2]: No irritating effect was observed; changes in development, state and behavior of the animals (non-linear white rats; rats, 2 months, in comparison with the control rats): No changes; toxic influence on the animals' organism (non-linear white rats; rats, prolonged period (2 months)): no toxic influence; also recorded: no toxic effect; local irritating effect (non-linear white rats; rats, visual examination of the internal organs after slaughtering): no local irritating effect was observed; growth of the mass of the rats, higher in comparison with the control animals (non-linear white rats; [8]): 10.7%; LD50 at 336 h (in vivo): 23500 mg/kg; MTD at 336 h (in vivo): 21000 mg/kg; dose from which mice lost mobility, had quickened breathing, inertia, narrowed eye slots (non-linear white mice): ≥ 22.0 g/kg; LD100 (non-linear white mice; 20160 min): 25.0 g/kg
